# Test results reported in patent US4812481A, “Synergistic combination of amantadiene and selegiline” (Degussa Aktiengesellschaft, priority 1986, dated 1989).
# Legend:
# [1] = system: akinetic crisis; test: improvement of the akinetic crisis (critical deteriorations of the Morbus Parkinson); format: in vivo, human; conditions: intravenous amantadine, without or with addition of selegiline
# [2] = system: Parkinson's disease; test: anti-Parkinsonism action in human (Webster scale, disability score); format: in vivo
# From the text: The effect of the anti-Parkinsonism action is established, for example, by Webster, D. D., Med. Treat. (N.Y.) 5, pp. 257-282, 1968. Here, the different symptoms are assigned and weighted after application of the monosubstance amantadine or the combination:
# 1. Slowed motor response of the hands
# 2. Rigor (elevation of the muscle tone)
# 4. Simultaneous swinging of the upper extremities
# 10. Ability to stand alone.
# An anti-Parkinsonism action is present if the sum of the values resulting from the Webster scale (the so-called disability score) is lower than the initial value without medication (<30). The synergistic effect of the combination results from the following: When selegiline is used in addition, the sum of the disability score is lower than that which would have been achieved if only amantadine had been used and/or the duration of the effectiveness of amantadine is extended.
SMILES,onset of improvement of the akinetic crisis [1],"anti-Parkinsonism action ([2]; Parkinson's disease, compared to pure amantadine)",improvement of the symptoms of Parkinson (Webster sums) ([2]; early stages of Morbus Parkinsonism)
"NC12CC3CC(CC(C3)C1)C2 [amantadine, 1-amino-adamantane]",relatively slowly setting in improvement of the akinetic crisis,,
"C#CCN(C)[C@H](C)Cc1ccccc1 [selegiline, N-(1-phenyl-2-propyl)-N-methyl-2-propinylamine]",,almost no anti-Parkinsonism action,does not show sufficient effect in regard to improving the symptoms of the Parkinson symptomatics
